Experimental data from the NIST ThermoML archive (doi:10.1016/j.jct.2018.02.014).

What was measured:
[1] = 101.33 kPa, Liquid; for viscosity: Falling or rolling sphere viscometry; for mass density: Vibrating tube method
[2] = activity coefficient (dimensionless); of the first substance listed, at infinite dilution; xn = mol fraction of the nth substance listed; details: 101.33 kPa, Liquid, Chromatography, x1 = 0

CC[N+]1(C)CCOCC1.N#CN=C=[N-] [N-ethyl-N-methylmorpholinium dicyanamide]
[1]
Details | mass density [kg/m3] | viscosity [mPa·s]
298.15 K | 1123.2 | 176
303.15 K | 1120.2 | –
308.15 K | 1117.2 | 106
313.15 K | 1114.2 | –
318.15 K | 1111.3 | 68.3
323.15 K | 1108.4 | –
328.15 K | 1105.4 | 47.4
333.15 K | 1102.5 | –
338.15 K | 1099.7 | 33.7
343.15 K | 1096.8 | –
348.15 K | 1093.9 | 24.8
353.15 K | 1091.1 | –
358.15 K | 1088.3 | 19.2
363.15 K | 1085.5 | –
368.15 K | 1082.7 | 15.6

O [water] + CC[N+]1(C)CCOCC1.N#CN=C=[N-]
[2]
Details | activity coefficient
318.15 K | 0.324
328.15 K | 0.337
338.15 K | 0.35
348.15 K | 0.364
358.15 K | 0.376
368.15 K | 0.39
